We go through 17 compounds from PubChem BioAssay AID248 (DTP/NCI, 2004).

The assay concerns L1210 leukemia ip in BDF1 mice, survival T/C. In words: NCI In Vivo Anticancer Drug Screen. Data for tumor model L1210 Leukemia (intraperitoneal) in B6D2F1 (BDF1) mice. To be noted: endpoint: mean survival time, higher = longer survival. In short, it runs like this: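 Ratio derived from survival: compound-dosed mice over vehicle-dosed mice, all bearing a transplantable tumor.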

Setting [1] is: dose: 100.0 mg/kg/injection, schedule: Q01DX001 (ip), vehicle: saline.
Setting [2] is: dose: 200.0 mg/kg/injection, schedule: Q01DX001 (ip), vehicle: saline.
[3] abbreviates: dose: 400.0 mg/kg/injection, schedule: Q01DX001 (ip), vehicle: saline.
The mark [4] stands for this setting: dose: 50.0 mg/kg/injection, schedule: Q01DX009 (ip), vehicle: Klucel (hydroxypropylcellulose) (HPC).
The mark [5] stands for this setting: dose: 100.0 mg/kg/injection, schedule: Q01DX009 (ip), vehicle: Klucel (hydroxypropylcellulose) (HPC).
Where [6] appears, read: dose: 100.0 mg/kg/injection, schedule: Q04DX003 (ip), vehicle: Klucel (hydroxypropylcellulose) (HPC).
The mark [7] stands for this setting: dose: 200.0 mg/kg/injection, schedule: Q04DX003 (ip), vehicle: Klucel (hydroxypropylcellulose) (HPC).
Setting [8] is: dose: 400.0 mg/kg/injection, schedule: Q04DX003 (ip), vehicle: Klucel (hydroxypropylcellulose) (HPC).
[9] abbreviates: dose: 50.0 mg/kg/injection, schedule: Q04DX003 (ip), vehicle: saline.

Toxic doses and inconclusive results are not listed.

As to `Cc1ccc2ccc(-c3ccccc3)nc2c1`, the T/C is 96 % of control under setting [1]; 93 % of control (dose: 100.0 mg/kg/injection, schedule: Q01DX009 (ip), vehicle: saline); 105 % of control under setting [2]; 90 % of control (dose: 200.0 mg/kg/injection, schedule: Q01DX009 (ip), vehicle: saline); 109 % of control under setting [3]; 92 % of control (dose: 400.0 mg/kg/injection, schedule: Q01DX009 (ip), vehicle: saline).
Take `CCCCCCCCCCCCCCCC[N+]1(C)CCOCC1`: the T/C was 114 % of control under setting [4] and 93 % of control under setting [5].
Take `CNC(=O)Oc1cccc(C=O)c1`: the T/C reads like this: (dose: 100.0 mg/kg/injection, schedule: Q01DX001 (ip), vehicle: other) 102 % of control; (dose: 200.0 mg/kg/injection, schedule: Q01DX001 (ip), vehicle: other) 117 % of control; (dose: 400.0 mg/kg/injection, schedule: Q01DX001 (ip), vehicle: other) 102 % of control.
Regarding `NC(N)=N/N=C/c1cccc(OCC(=O)O)c1`, the T/C was 87 % of control (dose: 15.0 mg/kg/injection, schedule: Q01DX Z (ip), vehicle: carboxymethylcellulose (CMC)); 92 % of control (dose: 30.0 mg/kg/injection, schedule: Q01DX Z (ip), vehicle: carboxymethylcellulose (CMC)); 92 % of control (dose: 60.0 mg/kg/injection, schedule: Q01DX Z (ip), vehicle: carboxymethylcellulose (CMC)); 100 % of control (dose: 60.0 mg/kg/injection, schedule: Q01DX Z (oral), vehicle: carboxymethylcellulose (CMC)); 94 % of control (dose: 120.0 mg/kg/injection, schedule: Q01DX Z (ip), vehicle: carboxymethylcellulose (CMC)); 100 % of control (dose: 120.0 mg/kg/injection, schedule: Q01DX Z (oral), vehicle: carboxymethylcellulose (CMC)). Moreover, the T/C (dose: 240.0 mg/kg/injection, schedule: Q01DX Z (oral), vehicle: carboxymethylcellulose (CMC)) was 94 % of control and the T/C (dose: 480.0 mg/kg/injection, schedule: Q01DX Z (oral), vehicle: carboxymethylcellulose (CMC)) is 100 % of control.
On to `COc1nccnn1`, for which the T/C is, setting by setting: (dose: 100.0 mg/kg/injection, schedule: Q01DX001 (ip), vehicle: saline with Tween-80) 93 % of control; (dose: 200.0 mg/kg/injection, schedule: Q01DX001 (ip), vehicle: saline with Tween-80) 103 % of control; (dose: 400.0 mg/kg/injection, schedule: Q01DX001 (ip), vehicle: saline with Tween-80) 101 % of control.
Turning to `Cc1ccc(NC(=O)OCCOc2cc(C)c(Cl)c(C)c2)c([N+](=O)[O-])c1`, the T/C reads like this: under setting [4], 95 % of control; under setting [5], 95 % of control; under setting [6], 90 % of control; (dose: 200.0 mg/kg/injection, schedule: Q01DX009 (ip), vehicle: Klucel (hydroxypropylcellulose) (HPC)) 91 % of control; under setting [7], 97 % of control; under setting [8], 92 % of control.
For the compound `CCCCCCCCCCCCCCCOc1c(Cl)c(Cl)c(Cl)c(Cl)c1Cl`, the T/C runs as follows: under setting [6], 95 % of control; under setting [7], 90 % of control; under setting [8], 95 % of control.
For the compound `COC(=O)/C(=C\c1ccc([N+](=O)[O-])s1)C(C)=O`, the T/C runs as follows: (dose: 6.25 mg/kg/injection, schedule: Q01DX005 (ip), vehicle: saline with Tween-80) 92 % of control; (dose: 12.5 mg/kg/injection, schedule: Q01DX005 (ip), vehicle: saline with Tween-80) 94 % of control; (dose: 12.5 mg/kg/injection, schedule: Q04DX003 (ip), vehicle: saline) 94 % of control; (dose: 25.0 mg/kg/injection, schedule: Q04DX003 (ip), vehicle: saline) 96 % of control; under setting [9], 86 % of control.
As for `Nc1cncc(Br)c1NCCc1ccccc1`, the T/C by setting is: (dose: 100.0 mg/kg/injection, schedule: Q01DX001 (ip), vehicle: carboxymethylcellulose (CMC)) 103 % of control; (dose: 200.0 mg/kg/injection, schedule: Q01DX001 (ip), vehicle: carboxymethylcellulose (CMC)) 97 % of control; (dose: 400.0 mg/kg/injection, schedule: Q01DX001 (ip), vehicle: carboxymethylcellulose (CMC)) 101 % of control.
Take `COC1/C=C/OC2(C)Oc3c(C)c(O)c4c(O)c(c(/C=N/NC5CCCCCCCCCCCCCC5)c(O)c4c3C2=O)NC(=O)/C(C)=C\C=C\C(C)C(O)C(C)C(O)C(C)C(OC(C)=O)C1C` (stereo unspecified): the T/C runs as follows: (dose: 100.0 mg/kg/injection, schedule: Q01DX003 (ip), vehicle: saline with Tween-80) 95 % of control; (dose: 200.0 mg/kg/injection, schedule: Q01DX003 (ip), vehicle: saline with Tween-80) 95 % of control; (dose: 400.0 mg/kg/injection, schedule: Q01DX003 (ip), vehicle: saline with Tween-80) 102 % of control.
`COc1ccc(C(=O)c2ccccc2C)cc1OC`: the T/C under setting [1] was 95 % of control, the T/C under setting [2] was 97 % of control and the T/C under setting [3] was 91 % of control.
On to `COc1ccc(C2OC23CCCc2ccccc2C3=O)cc1` (stereo unspecified), for which the T/C by setting is: under setting [6], 95 % of control; under setting [7], 97 % of control; under setting [8], 89 % of control.
Regarding `NCCCC1C2CCC(C2)C1CN` (stereo unspecified), the T/C (dose: 100.0 mg/kg/injection, schedule: Q04DX002 (ip), vehicle: alcohol) is 98 % of control.
`CCCCCCCC/C=C\CCCCCCCC(=O)OC`: the T/C runs as follows: (dose: 100.0 mg/kg/injection, schedule: Q01DX009 (ip), vehicle: saline with Tween-80) 91 % of control; (dose: 100.0 mg/kg/injection, schedule: Q04DX003 (ip), vehicle: saline with Tween-80) 96 % of control; (dose: 200.0 mg/kg/injection, schedule: Q01DX009 (ip), vehicle: saline with Tween-80) 92 % of control; (dose: 200.0 mg/kg/injection, schedule: Q04DX003 (ip), vehicle: saline with Tween-80) 100 % of control; (dose: 400.0 mg/kg/injection, schedule: Q01DX009 (ip), vehicle: saline with Tween-80) 95 % of control; (dose: 400.0 mg/kg/injection, schedule: Q04DX003 (ip), vehicle: saline with Tween-80) 98 % of control.
As for `O=NN(CCCl)C(=O)NC1C2CC3CC(C2)CC1C3` (stereo unspecified), the T/C is, setting by setting: (dose: 12.0 mg/kg/injection, schedule: Q01DX001 (ip), vehicle: other) 110 % of control; (dose: 18.0 mg/kg/injection, schedule: Q01DX001 (ip), vehicle: other) 114 % of control; (dose: 26.0 mg/kg/injection, schedule: Q01DX001 (ip), vehicle: other) 123 % of control; (dose: 40.0 mg/kg/injection, schedule: Q01DX001 (ip), vehicle: other) 163 % of control; (dose: 60.0 mg/kg/injection, schedule: Q01DX001 (ip), vehicle: other) 244 % of control; (dose: 93.0 mg/kg/injection, schedule: Q01DX001 (ip), vehicle: other) 323 % of control. The T/C (dose: 187.0 mg/kg/injection, schedule: Q01DX001 (ip), vehicle: other) is 340 % of control.
`CCS(=O)(=O)Nc1cccc(Nc2c3cccc(C)c3nc3c(C)cccc23)c1OC`: the T/C is 122 % of control (dose: 5.5 mg/kg/injection, schedule: Q01DX009 (ip), vehicle: saline); 113 % of control (dose: 11.0 mg/kg/injection, schedule: Q04DX003 (ip), vehicle: saline); 155 % of control (dose: 12.5 mg/kg/injection, schedule: Q01DX009 (ip), vehicle: saline with Tween-80); 112 % of control (dose: 12.5 mg/kg/injection, schedule: Q01DX009 (sc), vehicle: Klucel (hydroxypropylcellulose) (HPC)); 114 % of control (dose: 16.0 mg/kg/injection, schedule: Q04DX003 (ip), vehicle: saline); 181 % of control (dose: 25.0 mg/kg/injection, schedule: Q01DX009 (ip), vehicle: saline with Tween-80). In addition, the T/C (dose: 25.0 mg/kg/injection, schedule: Q01DX009 (sc), vehicle: Klucel (hydroxypropylcellulose) (HPC)) was 123 % of control; the T/C (dose: 50.0 mg/kg/injection, schedule: Q01DX009 (ip), vehicle: saline with Tween-80) was 103 % of control; the T/C under setting [9] was 157 % of control; the T/C (dose: 100.0 mg/kg/injection, schedule: Q04DX003 (ip), vehicle: saline) is 170 % of control.
Consider `Cc1cc2nc3c(=O)[nH]c(=O)nc-3n(CCOC(=O)CCC(=O)O)c2cc1C`, for which the T/C (dose: 50.0 mg/kg/injection, schedule: Q01DX001 (ip), vehicle: saline) was 116 % of control; the T/C under setting [1] is 103 % of control; the T/C under setting [2] is 114 % of control; the T/C under setting [3] is 103 % of control.
